# Source: patent US20230365546A1, “5-SUBSTITUTED INDOLE 3-AMIDE DERIVATIVES, PREPARATION METHOD AND USE THEREOF” (ORIGIANT PHARMACEUTICAL CO., LTD, priority 2020, published 2023)
# Assays:
# Experiment in all cases: Kinase Profiler 10 μM panel
# [1] = target: ALK2(h) (Homo sapiens (Human), UniProt Q04771)
# Protocol: (§1) In vitro kinase assays were conducted using Kinase Profiler services provided by Eurofins. The experimental method was as follows: the small molecule compound to be tested (0.001-10 μM), the protein kinase to be tested were incubated with a buffer containing substrate, 10 mM magnesium acetate, and [γ-^33P-ATP], the reaction was started by adding Mg\TPmix, after incubation for a period of time at room temperature, a 3% phosphate solution was added to the buffer to stop the reaction. Subsequently, 10 μL of the reaction mixture was quantitatively pipetted onto P30 filter paper, which was washed three times with 75 mM phosphate solution and then once with methanol. The P30 filter paper was air-dried and scintillation fluid was added for scintillation counting.
# [2] = target: GRK6(h) (Homo sapiens (Human), UniProt P43250)
# Protocol: as §1
# [3] = target: AMPKα2(h) (Homo sapiens (Human), UniProt P54646)
# Protocol: as §1
# [4] = target: GRK7(h) (Homo sapiens (Human), UniProt Q8WTQ7)
# Protocol: as §1
# [5] = target: HIPK1(h) (Homo sapiens (Human), UniProt Q86Z02)
# Protocol: as §1
# [6] = target: Aurora-C(h) (Homo sapiens (Human), UniProt Q9UQB9)
# Protocol: as §1
# [7] = target: B-Raf(V599E)(h) (Homo sapiens (Human), UniProt P15056, V600E)
# B-Raf(V599E)(h), sequence (P15056 417-766 V600E limits assumed): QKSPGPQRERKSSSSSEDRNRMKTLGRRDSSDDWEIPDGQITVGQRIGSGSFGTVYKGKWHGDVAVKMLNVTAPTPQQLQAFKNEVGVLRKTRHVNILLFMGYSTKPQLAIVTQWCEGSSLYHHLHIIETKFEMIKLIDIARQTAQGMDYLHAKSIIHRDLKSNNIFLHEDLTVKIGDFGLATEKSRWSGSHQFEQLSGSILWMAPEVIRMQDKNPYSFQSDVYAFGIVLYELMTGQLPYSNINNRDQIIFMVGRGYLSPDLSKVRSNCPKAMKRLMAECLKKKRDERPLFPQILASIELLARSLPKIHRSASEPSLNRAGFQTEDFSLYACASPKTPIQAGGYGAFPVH
# Protocol: as §1
# [8] = target: JAK3(h) (Homo sapiens (Human), UniProt P52333)
# Protocol: as §1
# [9] = target: LKB1(h) (Homo sapiens (Human), UniProt Q15831)
# Protocol: as §1
# [10] = target: CDK17/cyclinY(h) (Homo sapiens (Human), UniProt Q00537)
# Protocol: as §1
# [11] = target: MAP4K4(h) (Homo sapiens (Human), UniProt O95819)
# Protocol: as §1
# [12] = target: CDK4/cyclinD3(h) (Homo sapiens (Human), UniProt P11802)
# Protocol: as §1
# [13] = target: MAPK1(h) (Homo sapiens (Human), UniProt P27361)
# Protocol: as §1
# [14] = target: CDK9/cyclin T1(h) (Homo sapiens (Human), UniProt P50750)
# Protocol: as §1
# [15] = target: MARK4(h) (Homo sapiens (Human), UniProt Q96L34)
# Protocol: as §1
# [16] = target: MEKK3(h) (Homo sapiens (Human), UniProt Q99759)
# MEKK3(h), sequence (Q99759 whole entry): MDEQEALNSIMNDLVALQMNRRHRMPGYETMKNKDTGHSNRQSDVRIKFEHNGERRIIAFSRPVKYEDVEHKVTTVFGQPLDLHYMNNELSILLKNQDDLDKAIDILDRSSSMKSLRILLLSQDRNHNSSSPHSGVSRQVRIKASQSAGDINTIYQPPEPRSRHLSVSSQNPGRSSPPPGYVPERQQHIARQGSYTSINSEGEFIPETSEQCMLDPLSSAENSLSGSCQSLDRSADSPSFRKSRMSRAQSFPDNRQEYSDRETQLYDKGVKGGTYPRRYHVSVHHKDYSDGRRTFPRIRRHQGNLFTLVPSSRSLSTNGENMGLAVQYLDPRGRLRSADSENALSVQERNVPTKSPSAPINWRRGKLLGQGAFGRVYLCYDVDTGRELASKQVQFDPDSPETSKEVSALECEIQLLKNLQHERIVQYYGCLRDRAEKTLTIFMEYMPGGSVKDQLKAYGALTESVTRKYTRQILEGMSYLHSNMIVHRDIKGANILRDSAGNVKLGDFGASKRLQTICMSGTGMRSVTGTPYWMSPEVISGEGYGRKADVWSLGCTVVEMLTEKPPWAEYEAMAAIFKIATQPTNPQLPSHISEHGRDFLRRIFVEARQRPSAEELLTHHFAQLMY
# Protocol: as §1
# [17] = target: CHK2(I157T)(h) (Homo sapiens (Human), UniProt O96017, I157T)
# CHK2(I157T)(h), sequence (O96017 whole entry I157T): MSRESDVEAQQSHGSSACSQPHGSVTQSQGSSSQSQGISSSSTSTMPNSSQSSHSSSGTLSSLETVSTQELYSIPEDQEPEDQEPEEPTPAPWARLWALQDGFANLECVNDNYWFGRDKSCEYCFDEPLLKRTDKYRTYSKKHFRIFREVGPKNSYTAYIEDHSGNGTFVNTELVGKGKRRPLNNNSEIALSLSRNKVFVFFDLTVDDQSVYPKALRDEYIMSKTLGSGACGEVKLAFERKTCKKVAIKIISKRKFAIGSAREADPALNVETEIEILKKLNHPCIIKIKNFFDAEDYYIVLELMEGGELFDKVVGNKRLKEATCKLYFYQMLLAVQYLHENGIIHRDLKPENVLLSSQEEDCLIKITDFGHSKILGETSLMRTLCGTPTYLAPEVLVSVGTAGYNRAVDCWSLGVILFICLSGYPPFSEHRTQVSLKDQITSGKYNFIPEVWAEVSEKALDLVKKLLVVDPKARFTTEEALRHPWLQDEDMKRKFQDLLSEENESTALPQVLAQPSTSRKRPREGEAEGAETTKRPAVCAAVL
# Protocol: as §1
# [18] = target: Met(D1246H)(h) (Homo sapiens (Human), UniProt P08581, D1228H)
# Protocol: as §1
# [19] = target: Met(h) (Homo sapiens (Human), UniProt P08581)
# Protocol: as §1
# [20] = target: CK1γ3(h) (Homo sapiens (Human), UniProt Q9Y6M4)
# Protocol: as §1
# [21] = target: SIK2(h) (Homo sapiens (Human), UniProt Q9H0K1)
# Protocol: as §1
# [22] = target: Snk(h) (Homo sapiens (Human), UniProt Q9NYY3)
# Protocol: as §1
# [23] = target: cKit(D816H)(h) (Homo sapiens (Human), UniProt P10721, D816H)
# Protocol: as §1
# [24] = target: SRPK2(h) (Homo sapiens (Human), UniProt P78362)
# Protocol: The experimental method was as follows: the small molecule compound to be tested (0.001-10 μM), the protein kinase to be tested were incubated with a buffer containing substrate, 10 mM magnesium acetate, and [γ-^33P-ATP], the reaction was started by adding Mg\TPmix, after incubation for a period of time at room temperature, a 3% phosphate solution was added to the buffer to stop the reaction. Subsequently, 10 μL of the reaction mixture was quantitatively pipetted onto P30 filter paper, which was washed three times with 75 mM phosphate solution and then once with methanol. The P30 filter paper was air-dried and scintillation fluid was added for scintillation counting.
# [25] = target: CLK1(h) (Homo sapiens (Human), UniProt P49759)
# CLK1(h), sequence (P49759 whole entry): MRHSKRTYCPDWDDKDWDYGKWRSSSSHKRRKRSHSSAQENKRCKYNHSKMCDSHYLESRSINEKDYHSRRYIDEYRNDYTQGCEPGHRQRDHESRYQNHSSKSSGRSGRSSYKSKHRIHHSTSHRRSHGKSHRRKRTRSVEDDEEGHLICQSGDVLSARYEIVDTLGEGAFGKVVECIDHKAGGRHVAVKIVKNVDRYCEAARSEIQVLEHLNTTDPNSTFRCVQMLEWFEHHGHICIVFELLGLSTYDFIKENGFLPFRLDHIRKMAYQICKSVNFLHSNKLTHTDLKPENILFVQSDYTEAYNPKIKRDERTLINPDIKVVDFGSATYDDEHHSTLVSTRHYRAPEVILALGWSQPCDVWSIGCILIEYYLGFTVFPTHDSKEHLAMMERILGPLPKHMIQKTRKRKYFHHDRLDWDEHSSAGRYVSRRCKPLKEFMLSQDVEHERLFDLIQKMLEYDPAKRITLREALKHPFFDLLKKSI
# Protocol: as §1
# [26] = target: CLK3(h) (Homo sapiens (Human), UniProt P49761)
# Protocol: as §1
# [27] = target: CLK4(h) (Homo sapiens (Human), UniProt Q9HAZ1)
# Protocol: as §1
# [28] = target: DMPK(h) (Homo sapiens (Human), UniProt Q09013)
# Protocol: as §1
# [29] = target: Tie2(Y897S)(h) (Homo sapiens (Human), UniProt Q02763, Y897S)
# Protocol: as §1
# [30] = target: NUAK2(h) (Homo sapiens (Human), UniProt Q9H093)
# NUAK2(h), sequence (Q9H093 whole entry): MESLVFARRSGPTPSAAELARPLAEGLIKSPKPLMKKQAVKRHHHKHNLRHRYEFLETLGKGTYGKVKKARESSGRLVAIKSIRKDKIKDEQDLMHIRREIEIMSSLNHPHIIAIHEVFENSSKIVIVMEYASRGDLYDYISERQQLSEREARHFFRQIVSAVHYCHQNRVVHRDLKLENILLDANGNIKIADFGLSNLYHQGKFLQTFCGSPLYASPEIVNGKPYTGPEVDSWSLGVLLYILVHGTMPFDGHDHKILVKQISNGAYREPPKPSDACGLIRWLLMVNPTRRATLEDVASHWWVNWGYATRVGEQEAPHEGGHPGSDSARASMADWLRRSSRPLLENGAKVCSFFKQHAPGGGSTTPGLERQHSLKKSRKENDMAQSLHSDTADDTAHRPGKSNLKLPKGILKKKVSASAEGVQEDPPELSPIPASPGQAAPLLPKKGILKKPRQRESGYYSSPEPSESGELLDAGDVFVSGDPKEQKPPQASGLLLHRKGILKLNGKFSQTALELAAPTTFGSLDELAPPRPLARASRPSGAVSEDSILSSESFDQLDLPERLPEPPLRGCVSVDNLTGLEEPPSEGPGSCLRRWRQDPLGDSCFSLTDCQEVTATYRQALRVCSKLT
# Protocol: as §1
# [31] = target: p70S6K(h) (Homo sapiens (Human), UniProt P23443)
# Protocol: as §1
# [32] = target: Txk(h) (Homo sapiens (Human), UniProt P42681)
# Protocol: as §1
# [33] = target: PAK5(h) (Homo sapiens (Human), UniProt Q9P286)
# PAK5(h), sequence (Q9P286 whole entry): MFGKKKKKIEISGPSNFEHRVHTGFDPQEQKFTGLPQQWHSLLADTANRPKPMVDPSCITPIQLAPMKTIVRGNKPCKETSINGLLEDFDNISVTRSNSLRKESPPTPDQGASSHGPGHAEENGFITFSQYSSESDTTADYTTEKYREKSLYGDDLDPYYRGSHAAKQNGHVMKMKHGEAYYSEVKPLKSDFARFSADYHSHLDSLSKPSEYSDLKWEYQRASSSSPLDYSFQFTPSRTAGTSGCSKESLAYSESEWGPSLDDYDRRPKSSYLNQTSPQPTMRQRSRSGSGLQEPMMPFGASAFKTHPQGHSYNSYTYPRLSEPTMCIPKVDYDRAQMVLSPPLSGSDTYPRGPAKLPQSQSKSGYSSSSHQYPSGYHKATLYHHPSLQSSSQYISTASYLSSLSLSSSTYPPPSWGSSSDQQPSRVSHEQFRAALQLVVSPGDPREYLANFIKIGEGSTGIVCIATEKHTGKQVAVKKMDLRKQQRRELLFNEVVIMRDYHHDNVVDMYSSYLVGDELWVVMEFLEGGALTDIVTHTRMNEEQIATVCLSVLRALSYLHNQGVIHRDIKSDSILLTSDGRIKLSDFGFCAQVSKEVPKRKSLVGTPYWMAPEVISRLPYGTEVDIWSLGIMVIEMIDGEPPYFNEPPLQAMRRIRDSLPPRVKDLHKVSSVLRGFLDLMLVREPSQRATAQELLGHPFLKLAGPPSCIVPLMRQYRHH
# Protocol: as §1
# [34] = target: FGFR4(h) (Homo sapiens (Human), UniProt P22455)
# Protocol: as §1
# AMPKα2(h), sequence (P54646 whole entry): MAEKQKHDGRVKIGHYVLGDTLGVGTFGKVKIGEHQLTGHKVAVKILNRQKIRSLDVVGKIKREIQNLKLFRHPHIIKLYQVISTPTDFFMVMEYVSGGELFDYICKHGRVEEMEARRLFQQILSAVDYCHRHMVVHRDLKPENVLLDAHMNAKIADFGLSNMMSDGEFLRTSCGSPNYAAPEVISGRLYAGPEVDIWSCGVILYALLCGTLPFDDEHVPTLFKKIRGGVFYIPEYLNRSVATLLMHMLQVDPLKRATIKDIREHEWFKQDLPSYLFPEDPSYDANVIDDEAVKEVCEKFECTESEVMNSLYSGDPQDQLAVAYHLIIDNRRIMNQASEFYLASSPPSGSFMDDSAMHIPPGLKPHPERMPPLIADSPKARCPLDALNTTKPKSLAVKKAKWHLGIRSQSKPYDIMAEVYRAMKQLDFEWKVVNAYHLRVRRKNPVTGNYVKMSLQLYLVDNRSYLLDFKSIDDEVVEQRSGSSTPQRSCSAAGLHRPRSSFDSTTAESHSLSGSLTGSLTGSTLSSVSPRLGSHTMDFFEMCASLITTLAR
# AMPKα2(h), sequence (Q9Y478 whole entry partner): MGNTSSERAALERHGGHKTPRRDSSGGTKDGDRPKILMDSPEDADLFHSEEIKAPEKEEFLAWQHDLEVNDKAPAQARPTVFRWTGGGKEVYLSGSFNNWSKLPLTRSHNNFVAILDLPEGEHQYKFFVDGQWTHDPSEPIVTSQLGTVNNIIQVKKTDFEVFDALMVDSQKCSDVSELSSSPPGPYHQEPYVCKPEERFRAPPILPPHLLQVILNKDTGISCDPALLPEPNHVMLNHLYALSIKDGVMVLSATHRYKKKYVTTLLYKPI
# AMPKα2(h), sequence (P54619 whole entry partner): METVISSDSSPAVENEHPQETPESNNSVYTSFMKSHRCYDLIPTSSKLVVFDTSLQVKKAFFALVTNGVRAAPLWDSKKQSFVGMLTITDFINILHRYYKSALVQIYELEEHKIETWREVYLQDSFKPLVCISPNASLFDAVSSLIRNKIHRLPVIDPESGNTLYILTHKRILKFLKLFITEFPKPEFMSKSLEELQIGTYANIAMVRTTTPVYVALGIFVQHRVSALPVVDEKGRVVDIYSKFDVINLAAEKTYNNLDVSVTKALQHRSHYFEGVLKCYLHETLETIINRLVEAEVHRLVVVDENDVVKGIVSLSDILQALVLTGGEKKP
# ALK2(h), sequence (Q04771 21-509): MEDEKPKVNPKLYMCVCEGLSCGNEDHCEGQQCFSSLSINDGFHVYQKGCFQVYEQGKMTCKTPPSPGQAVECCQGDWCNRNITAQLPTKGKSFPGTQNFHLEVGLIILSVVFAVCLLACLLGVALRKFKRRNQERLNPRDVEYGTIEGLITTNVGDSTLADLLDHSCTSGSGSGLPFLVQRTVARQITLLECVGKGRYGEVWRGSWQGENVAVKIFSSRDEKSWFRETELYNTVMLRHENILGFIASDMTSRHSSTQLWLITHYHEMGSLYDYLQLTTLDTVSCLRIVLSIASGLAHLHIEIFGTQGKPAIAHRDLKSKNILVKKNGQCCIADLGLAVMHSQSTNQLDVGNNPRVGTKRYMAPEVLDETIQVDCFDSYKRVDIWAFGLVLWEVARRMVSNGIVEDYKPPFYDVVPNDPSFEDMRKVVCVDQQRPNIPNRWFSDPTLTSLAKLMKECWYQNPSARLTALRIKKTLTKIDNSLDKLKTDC
smiles,measurement,setting,value
"C[C@H](NC(=O)c1cn(C)c2ccc(-c3ccn4nc(NC(=O)C5CC5)nc4c3)cc12)c1cccc(F)c1 [Compound 94, (S)-5-(2-(cyclopropanecarboxamido)-[1,2,4]triazolo[1,5-a]pyridin-7-yl)-N-(1-(3-fluorophenyl)ethyl)-1-methyl-1H-indole-3-carboxamide]",Inhibition ratio/%,[1],−17%
same,Inhibition ratio/%,[2],2%
same,Inhibition ratio/%,[3],16%
same,Inhibition ratio/%,[4],−16%
same,Inhibition ratio/%,[5],48%
same,Inhibition ratio/%,[6],15%
same,Inhibition ratio/%,[7],−10%
same,Inhibition ratio/%,[8],38%
same,Inhibition ratio/%,[9],55%
same,Inhibition ratio/%,[10],70%
same,Inhibition ratio/%,[11],−3%
same,Inhibition ratio/%,[12],4%
same,Inhibition ratio/%,[13],33%
same,Inhibition ratio/%,[14],61%
same,Inhibition ratio/%,[15],38%
same,Inhibition ratio/%,[16],14%
same,Inhibition ratio/%,[17],61%
same,Inhibition ratio/%,[18],34%
same,Inhibition ratio/%,[19],−29%
same,Inhibition ratio/%,[20],−10%
same,Inhibition ratio/%,[21],−4%
same,Inhibition ratio/%,[22],1%
same,Inhibition ratio/%,[23],42%
same,Inhibition ratio/%,[24],−16%
same,Inhibition ratio/%,[25],80%
same,Inhibition ratio/%,[26],35%
same,Inhibition ratio/%,[27],79%
same,Inhibition ratio/%,[28],−2%
same,Inhibition ratio/%,[29],18%
same,Inhibition ratio/%,[30],30%
same,Inhibition ratio/%,[31],−18%
same,Inhibition ratio/%,[32],−12%
same,Inhibition ratio/%,[33],47%
same,Inhibition ratio/%,[34],37%
"C[C@H](NC(=O)c1c[nH]c2ccc(-c3ccc4nc(NC(=O)C5CC5)sc4c3)cc12)c1cccc(F)c1 [Compound 34, (S)-5-(2-(cyclopropanecarboxamido)benzo[d]thiazol-6-yl)-N-(1-(3-fluorophenyl)ethyl)-1H-indole-3-carboxamide]",Inhibition ratio,[1],64%
same,Inhibition ratio,[2],0%
same,Inhibition ratio,[3],13%
same,Inhibition ratio,[4],4%
same,Inhibition ratio,[5],68%
same,Inhibition ratio,[6],26%
same,Inhibition ratio,[7],14%
same,Inhibition ratio,[8],23%
same,Inhibition ratio,[9],6%
same,Inhibition ratio,[10],−11%
same,Inhibition ratio,[11],98%
same,Inhibition ratio,[12],−5%
same,Inhibition ratio,[13],25%
same,Inhibition ratio,[14],41%
same,Inhibition ratio,[15],3%
same,Inhibition ratio,[16],2%
same,Inhibition ratio,[17],24%
same,Inhibition ratio,[18],95%
same,Inhibition ratio,[19],95%
same,Inhibition ratio,[20],−15%
same,Inhibition ratio,[21],39%
same,Inhibition ratio,[22],0%
same,Inhibition ratio,[23],44%
same,Inhibition ratio,[24],17%
same,Inhibition ratio,[25],80%
same,Inhibition ratio,[26],35%
same,Inhibition ratio,[27],79%
same,Inhibition ratio,[28],10%
same,Inhibition ratio,[29],88%
same,Inhibition ratio,[30],9%
same,Inhibition ratio,[31],25%
same,Inhibition ratio,[32],47%
same,Inhibition ratio,[33],−2%
same,Inhibition ratio,[34],5%
